Results as given in US20080249028A1, “Thyrotropin-Releasing Hormone Analogs and Method of Use” (Roger Williams Hospital, priority 2005, published 2008).

What was measured:
[1] = system: STZ-induced hyperglycemic rats; assay: Effect on STZ-induced hyperglycemia in rats (blood glucose level); type: in vivo, rat; conditions: for blood glucose level: Table 1, rats, STZ + compound i.p.
Method: (§1) Male Sprague-Dawley rats (S.D. 180 g) were used in the experiments described below. The animals lived in individual metabolism cages with free access to food and water, while food and body weight were monitored daily. Peripheral blood samples (approximately 10 μl) were obtained from the tail vein of the animals. The blood glucose levels were measured by using Accu-Check Blood Glucose Meter (Roche Diagnosetics Corporation, IN). Beta cell function was evaluated once every two days over a 2-week period by an individual unaware of the treatment group. Animals were evaluated separately for blood glucose level, food intake and body weight. The endpoint check was pancreatic insulin content and pancreatic beta cell number.
Streptozotocin (STZ) was used to chemically induce damage in pancreatic function in order to create a hyperglycemic state in the animals. Eight-week old male Sprague-Dawley rats (200.00 g±10 g) were injected with STZ by intraperitoneal (i.p.) (65 mg/kg body weight (BW)) to create hyperglycemic animals (24 to 48 hours). Blood glucose levels were monitored daily. Onset of hyperglycemia occurred usually about 24 to 48 hours after STZ administration.
[…] the seventh day or on the third day after STZ administration, which allowed for examination of the TRH/TRH analog treatment and the degree of pancreatic damage in the diabetic animal. Again, food intake, body weight and blood glucose levels of each of the animals were monitored. When hyperglycemia was determined to be reversed by TRH/TRH analog, the animal was sacrificed. Blood samples were collected for insulin assay and the pancreas and muscles were collected for further pathological and physiological tests.
(§2) The figures shown in the tables are blood glucose levels (mg/dL; i.e., milligrams of glucose per deciliter of blood).

Sprague-Dawley rats = assay: Blood glucose level in rats given compound alone (no STZ); type: in vivo, rat; conditions: Table 1, rats, TRH alone (no STZ)
Method: as §1, §2

[2] = system: STZ-induced hyperglycemic rats; assay: Serum insulin assay after TRH treatment of STZ rats; type: in vivo, rat; conditions: following TRH vs. control and STZ groups
Method: (§3) Partial pancreatic tissue was extracted with 1 N glacial acetic acid for insulin assay by ELISA. Four animals were used in each group. Each pancreas was placed in head (central) to tail (peripheral) orientation and immediately snap frozen and kept at −80° C. This orientation of the tissue provided an opportunity for sectioning of equal surface areas when cutting the frozen tissue. In this manner, the pancreas sections included every portion of the pancreas in parallel, while avoiding variations caused by sectioning from different areas. The HE histological staining was performed on serial sections (5 um thick) and islets were counted in 10 slides for each sample and standardized by dividing the total area (islets/cm^2).
A group of animals were given a single dose i.p. of 20 μg/kg BW or […] of TRH or TRH analogs on the seventh day or on the third day after STZ administration, which allowed for examination of the TRH/TRH analog treatment and the degree of pancreatic damage in the diabetic animal. Again, food intake, body weight and blood glucose levels of each of the animals were monitored. When hyperglycemia was determined to be reversed by TRH/TRH analog, the animal was sacrificed. Blood samples were collected for insulin assay and the pancreas and muscles were collected for further pathological and physiological tests.

pancreatic islets = assay: Pancreatic islet count (HE histological staining); type: in vivo, rat; conditions: by activation of the TRH receptor
Method: as §3

[3] = system: pancreatic beta cell function; assay: Beta cell function evaluation after pancreatic damage; type: in vivo, rat; conditions: at 2 weeks after pancreatic damage
Method: as §1

rat = conditions: injection of TRH into the rat brain; cited from earlier work
[4] = in vivo; cited from earlier work

SMILES: NC(=O)[C@@H]1CCCN1C(=O)[C@H](Cc1cnc[nH]1)NC(=O)[C@@H]1CCC(=O)N1 [TRH, L-pyroglutamyl-L-histidyl-L-prolineamide, reference compound]
- hyperglycemia ([1]; TRH administration on day 3 following STZ injection, after 6 days): reversed the hyperglycemia
- blood glucose level ([1]; Day 1): 107.8 mg/dL
- blood glucose level ([1]; Day 2): 321.4 mg/dL
- blood glucose level ([1]; Day 4): 448.8 mg/dL
- blood glucose level ([1]; Day 9): 191.2 mg/dL
- blood glucose level ([1]; Day 15): 182.6 mg/dL
- blood glucose level ([1]; Day 22): 380.2 mg/dL
- blood glucose level ([1]; Day 29): 337 mg/dL
- blood glucose level ([1]; Day 39): 283.4 mg/dL
- blood glucose level ([1]; Day 43): 220.4 mg/dL
- blood glucose level ([1]; Day 50): 182 mg/dL
- blood glucose level ([1]; Day 53): 151 mg/dL
- blood glucose level ([1]; Day 56): 139 mg/dL
- blood glucose level ([1]; Day 60): 180 mg/dL
- blood glucose level ([1]; Day 64): 156 mg/dL
- glucose levels over time ([1]; rat treated with TRH after STZ-induced hyperglycemia, over a two month time period): continually decreased
- STZ induced hyperglycemia ([1]; rats, after seven days of TRH and STZ treatment): normalized
- blood glucose level (Sprague-Dawley rats; Day 1): 101.5 mg/dL
- blood glucose level (Sprague-Dawley rats; Day 2): 125 mg/dL
- blood glucose level (Sprague-Dawley rats; Day 4): 125 mg/dL
- blood glucose level (Sprague-Dawley rats; Day 9): 96 mg/dL
- blood glucose level (Sprague-Dawley rats; Day 15): 82.5 mg/dL
- blood glucose level (Sprague-Dawley rats; Day 22): 89 mg/dL
- blood glucose level (Sprague-Dawley rats; Day 29): 74.5 mg/dL
- blood glucose level (Sprague-Dawley rats; Day 39): 80 mg/dL
- blood glucose level (Sprague-Dawley rats; Day 43): 90.5 mg/dL
- blood glucose level (Sprague-Dawley rats; Day 50): 93 mg/dL
- blood glucose level (Sprague-Dawley rats; Day 53): 78 mg/dL
- blood glucose level (Sprague-Dawley rats; Day 56): 75 mg/dL
- blood glucose level (Sprague-Dawley rats; Day 60): 67 mg/dL
- blood glucose level (Sprague-Dawley rats; Day 64): 85 mg/dL
- levels of insulin in the serum [2]: increased
- number of pancreatic islets (pancreatic islets): increases
- pancreatic endocrine outcome [3]: improved
- blood glucose levels (rat): reduce blood glucose levels
- plasma half-life [4]: 4 to 5 min
